The results in this text go back to patent publication US12116359B2, “EBNA1 inhibitor crystalline forms, and methods of preparing and using same” (THE WISTAR INSTITUTE, priority 2018, dated 2024).

Entries after “also recorded” stand apart in the source; their conditions may differ. Like-named read-outs stand apart in the source and are kept apart here.

Type in all cases: physicochemical
Data set [1] in a line: Storage stability of solid forms at elevated temperature/humidity (XRPD, HPLC purity). Conditions: 4 weeks.
Assay in data set [2]: as above
On the procedure:
Purity analysis was performed on an Agilent HP1100 series system equipped with a diode array detector and using ChemStation software vB.04.03 using the method detailed in Table 1.
Amorphous (I) free acid was stored at 40° C./75% RH (open vial), 25° C./97% RH (open vial) and 60° C. (closed vial, ambient humidity) for 8 weeks.
Characterization by XRPD, ^1H NMR, TGA, DSC and storage at 40° C./75% RH for one week was carried out. Details are found in Table 10.

A short description of data set [3]: Further stability experiments on crystalline forms (vacuum drying, grinding, storage). On the procedure: Further experiments were carried out, involving heating, vacuum drying and/or grinding the materials in order to assess the stability of the solvated materials and the potential crystallization of an anhydrous form by desolvation.
The nature of data set [4]: Gravimetric vapour sorption (GVS). Conditions: for Hygroscopicity: GVS, 0-90% RH. On the procedure: Sorption isotherms were obtained using a SMS DVS Intrinsic moisture sorption analyzer, controlled by DVS Intrinsic Control software. The sample temperature was maintained at 25° C. by instrument controls. The humidity was controlled by mixing streams of dry and wet nitrogen, with a total flow rate of 200 ml/min. The relative humidity was measured by a calibrated Rotronic probe (dynamic range of 1.0-100% RH), located near the sample. The weight change (mass relaxation) of the sample as a function of % RH was constantly monitored by the microbalance (accuracy ±0.005 mg). Typically 5-20 mg of sample was placed in a tared mesh stainless steel basket under ambient conditions. The sample was loaded and unloaded at 40% RH and 25° C. (typical room conditions). A moisture sorption isotherm was performed as outlined below (2 scans giving 1 complete cycle). The standard isotherm was performed at 25° C. at 10% RH intervals over a 0-90% RH range. Data analysis was carried out using Microsoft Excel. The sample was recovered after completion of the isotherm and re-analyzed by XRPD.

Data set [5] in a line: Preliminary solubility assessment in solvents. Conditions: RT. On the procedure:
Amorphous (I) free acid (post washing, ca. 20 mg) was dissolved or suspended in a range of solvent systems (using 10 or 20 volumes) at RT. Solutions were placed in a fridge at 4° C. overnight. If no solid was obtained, the solution was then allowed to evaporate at RT. Suspensions were matured between RT-50° C. heat-cool cycles (8 h per cycle) for up to 7 days. Solids were analyzed by XRPD.

One may read the solubility as the concentration that dissolves in the medium under given conditions.

Turning to `O=C(O)c1cccc(C#Cc2ccc(COC3CCOCC3)cc2)c1-c1ccc2cc[nH]c2c1` [Pattern 1, 2-(1H-Indol-6-yl)-3-[4-(tetrahydro-pyran-4-yloxymethyl)-phenylethynyl]-benzoic acid], the “XRPD after storage at 25° C./97% RH for 4 weeks” value is recorded as “remained unchanged by XRPD” in data set [1] (listed as Crystalline (I)); “remained unchanged by XRPD” in data set [1] (listed as crystalline batch); “Unchanged by XRPD” in data set [2] (25° C./97% RH, 4 weeks). Also, the “XRPD after storage at 40° C./75% RH for 4 weeks” value in data set [1] (listed as Crystalline (I)) was “remained unchanged by XRPD”; in data set [1] (listed as crystalline batch) it was “remained unchanged by XRPD”; in data set [2] (40° C./75% RH, 4 weeks), “Unchanged by XRPD”.

In the case of `O=C(O)c1cccc(C#Cc2ccc(COC3CCOCC3)cc2)c1-c1ccc2cc[nH]c2c1` [Pattern 2, 2-(1H-Indol-6-yl)-3-[4-(tetrahydro-pyran-4-yloxymethyl)-phenylethynyl]-benzoic acid], the “Grinding and vacuum drying at 55° C.: solvent content” value in data set [3] (1H NMR, 0.5 eq. toluene as prepared) was determined as 0.3 eq. toluene. The “Grinding and vacuum drying at 55° C.: crystallinity” value in data set [3] (XRPD) was “significant loss of crystallinity; also recorded: Lower crystallinity”. For the same molecule, the “Vacuum drying 40° C. or 55° C.” value in data set [3] (solid form and solvent content by XRPD or 1H NMR) is on record as “Unchanged by XRPD”.

`O=C(O)c1cccc(C#Cc2ccc(COC3CCOCC3)cc2)c1-c1ccc2cc[nH]c2c1` [Pattern 3, 2-(1H-Indol-6-yl)-3-[4-(tetrahydro-pyran-4-yloxymethyl)-phenylethynyl]-benzoic acid]: the “Storage at 40° C./75% RH for 3.5 days” value in data set [3] (40° C./75% RH, 3.5 days, XRPD and 1H NMR) is “Unchanged by”.

On to `O=C(O)c1cccc(C#Cc2ccc(COC3CCOCC3)cc2)c1-c1ccc2cc[nH]c2c1` [Pattern 4, 2-(1H-Indol-6-yl)-3-[4-(tetrahydro-pyran-4-yloxymethyl)-phenylethynyl]-benzoic acid], for which the “Storage at 40° C./75% RH for 7 days” value in data set [2] (40° C./75% RH, 7 days, solid form by XRPD) was “Unchanged”.

As to `O=C(O)c1cccc(C#Cc2ccc(COC3CCOCC3)cc2)c1-c1ccc2cc[nH]c2c1` [Amorphous (I) free acid, 2-(1H-Indol-6-yl)-3-[4-(tetrahydro-pyran-4-yloxymethyl)-phenylethynyl]-benzoic acid], the Hygroscopicity entry in data set [4] and in data set [4] (listed as main batch) was “hygroscopic” in each case. Besides, the “XRPD after GVS” value in data set [4] (after 0-90% RH isotherm, listed as (I) free acid amorphous material) was 0-90% RH with hysteresis. Unchanged by XRPD. In addition, in data set [4] (between 0-90% RH, 25° C.), the GVS moisture uptake result was “ca. 5.50%”. The “GVS reversible moisture uptake” value in data set [4] (between 0-90% RH, 25° C.) was 5.5% w/w reversible moisture uptake between. The “Decrease in chemical purity after storage” value in data set [2] (25° C./97% RH, 8 weeks) is given as 4.0 % (AUC); in data set [2] (40° C./75% RH, 8 weeks), 2.0 % (AUC); in data set [2] (60° C., 8 weeks) it was 1.1 % (AUC). For the same molecule, the “XRPD after storage at 25° C./97% RH for 8 weeks” value in data set [2] (25° C./97% RH, open vial, 8 weeks) is listed as “completely amorphous trace by XRPD; also recorded: amorphous traces”. Moreover, the “Purity by HPLC after storage at 25° C./97% RH for 8 weeks” value in data set [2] (25° C./97% RH, open vial, 8 weeks, initial purity 95.5% (AUC)) is listed as 91.5 % (AUC); in data set [2] (25° C./97% RH, open vial, 8 weeks, initial purity 95.5% (AUC), listed as (I) free acid amorphous material) it was “present. 91.5% (AUC) purity”. For the same molecule, the “XRPD after storage at 40° C./75% RH for 8 weeks” value in data set [2] (40° C./75% RH, open vial, 8 weeks) is on record as “unchanged by XRPD; also recorded: amorphous traces”; in data set [2] (40° C./75% RH, open vial, 8 weeks, listed as (I) free acid amorphous material), “Unchanged by XRPD”. Further, in data set [2] (40° C./75% RH, open vial, 8 weeks, initial purity 95.5% (AUC)), the “Purity by HPLC after storage at 40° C./75% RH for 8 weeks” value was 93.5 % (AUC). For the same molecule, the “XRPD after storage at 60° C. for 8 weeks” value is on record as “unchanged by XRPD; also recorded: amorphous traces” in data set [2] (60° C., closed vial, ambient humidity, 8 weeks) and “Unchanged by XRPD” in data set [2] (60° C., closed vial, ambient humidity, 8 weeks, listed as (I) free acid amorphous material). Also, the “Purity by HPLC after storage at 60° C. for 8 weeks” value in data set [2] (60° C., closed vial, ambient humidity, 8 weeks, initial purity 95.5% (AUC)) is reported as 94.4 % (AUC). For the same molecule, the solubility is over 100 mg/mL in data set [5] (1,4-dioxane, organic solvent or mixture, thermodynamic from solid, 1,4-Dioxane, 10 vol, read-out: Solubility assessment 10 vol); over 100 mg/mL in data set [5] (2-propanol, organic solvent or mixture, thermodynamic from solid, 2-Propanol, 10 vol, read-out: Solubility assessment 10 vol); over 100 mg/mL in data set [5] (acetone, organic solvent or mixture, thermodynamic from solid, Acetone, 10 vol, read-out: Solubility assessment 10 vol); over 100 mg/mL in data set [5] (acetone/5% water, organic solvent or mixture, thermodynamic from solid, Acetone/5% water, 10 vol, read-out: Solubility assessment 10 vol); over 100 mg/mL in data set [5] (acetonitrile, organic solvent or mixture, thermodynamic from solid, Acetonitrile, 10 vol, read-out: Solubility assessment 10 vol); over 100 mg/mL in data set [5] (anisole, organic solvent or mixture, thermodynamic from solid, Anisole, 10 vol, read-out: Solubility assessment 10 vol). The solubility in data set [5] (dichloromethane, organic solvent or mixture, thermodynamic from solid, Dichloromethane, 10 vol, read-out: Solubility assessment 10 vol) is over 100 mg/mL; in data set [5] (ethanol, organic solvent or mixture, thermodynamic from solid, Ethanol, 10 vol, read-out: Solubility assessment 10 vol), over 100 mg/mL; in data set [5] (ethanol/5% water, organic solvent or mixture, thermodynamic from solid, Ethanol/5% water, 10 vol, read-out: Solubility assessment 10 vol), over 100 mg/mL; in data set [5] (ethyl acetate, organic solvent or mixture, thermodynamic from solid, Ethyl Acetate, 10 vol, read-out: Solubility assessment 10 vol) it was over 100 mg/mL; in data set [5] (heptane, organic solvent or mixture, thermodynamic from solid, Heptane, 10 vol, read-out: Solubility assessment 10 vol), under 100 mg/mL; in data set [5] (heptane, organic solvent or mixture, thermodynamic from solid, Heptane, 20 vol, read-out: Solubility assessment 20 vol), under 50 mg/mL. Besides, the solubility in data set [5] (methanol, organic solvent or mixture, thermodynamic from solid, Methanol, 10 vol, read-out: Solubility assessment 10 vol) is over 100 mg/mL; in data set [5] (methylethyl ketone, organic solvent or mixture, thermodynamic from solid, Methylethyl Ketone, 10 vol, read-out: Solubility assessment 10 vol) it was over 100 mg/mL; in data set [5] (methylisobutyl ketone (printed Methylisoburyl Ketone), organic solvent or mixture, thermodynamic from solid, Methylisoburyl Ketone, 10 vol, read-out: Solubility assessment 10 vol), over 100 mg/mL; in data set [5] (nitromethane, organic solvent or mixture, thermodynamic from solid, Nitromethane, 10 vol, read-out: Solubility assessment 10 vol) it was under 100 mg/mL; in data set [5] (nitromethane, organic solvent or mixture, thermodynamic from solid, Nitromethane, 20 vol, read-out: Solubility assessment 20 vol), under 50 mg/mL; in data set [5] (tetrahydrofuran, organic solvent or mixture, thermodynamic from solid, Tetrahydrofuran, 10 vol, read-out: Solubility assessment 10 vol), over 100 mg/mL. For the same molecule, the solubility in data set [5] (toluene, organic solvent or mixture, thermodynamic from solid, Toluene, 10 vol, read-out: Solubility assessment 10 vol) was under 100 mg/mL; in data set [5] (toluene, organic solvent or mixture, thermodynamic from solid, Toluene, 20 vol, read-out: Solubility assessment 20 vol), under 50 mg/mL; in data set [5] (water, thermodynamic from solid, Water, 10 vol, read-out: Solubility assessment 10 vol), under 100 mg/mL; in data set [5] (water, thermodynamic from solid, Water, 20 vol, read-out: Solubility assessment 20 vol), under 50 mg/mL.
